Laboratory results: patent publication US6376666B1 (Nauchno-Issledovatelsky Institut Farmakologii Rossiiskoi …, priority 1994, dated 2002)

Tested on: cats
Experiment: hemodynamics and activity of intact heart in cats under anesthesia
Assay type: in vivo
Conditions: cats i.v., doses of 0,5 mg/kg-2,0 mg/kg
Procedure: The effects of compounds on the hemodynamics and activity of intact heart were studied in cats under anesthesia. The experiments were carried out under conditions of open chest. The phase curve of aortic blood flow was the main index of cardiac activity. The compounds were administered i.v. in physiological solution. The t-Student' test was used to estimate the statistical significance.

CCOc1ccc2nc(SCCN3CCOCC3)[nH]c2c1 [XII, 2-[2-(Morpholino)ethylthio]-5-ethoxybenzimidazole]
effect on heart rate, in words: small and short bradycardia
